# Laboratory results as given in patent publication US20110166123A1, “NOVEL COMPOSITIONS AND METHODS OF USE” (priority 2008, published 2011).
# Tested on: human immunodeficiency virus type 1 (HIV-1)
# Assay: microbe, parasite or virus in culture
# Format: cell-based
# Settings: Human immunodeficiency virus 1, HeLa, 48 h, HIV-1 luciferase reporter, HeLa cells, 48 hours after infection
row,Structure (SMILES),EC50
1,"COc1nc2c(cc1Nc1ccc(F)cc1)c(=O)c(C(=O)O)cn2[C@H](CO)C(C)C [Example 20QQ, (S)-6-(4-fluorophenylamino)-1-(1-hydroxy-3-methylbutan-2-yl)-7-methoxy-4-oxo-1,4-dihydro-1,8-naphthyridine-3-carboxylic acid]",> 100 nM
2,"COc1nc2c(cc1NCc1ccc(F)cc1F)c(=O)c(C(=O)O)cn2[C@H](CO)C(C)C [Example 20R, (S)-6-(2,4-difluorobenzylamino)-1-(1-hydroxy-3-methylbutan-2-yl)-7-methoxy-4-oxo-1,4-dihydro-1,8-naphthyridine-3-carboxylic acid]",10 to 100 nM
3,"COc1nc2c(cc1Nc1ccc(F)c(Cl)c1)c(=O)c(C(=O)O)cn2[C@H](CO)C(C)C [Example 20RR, (S)-6-(3-chloro-4-fluorophenylamino)-1-(1-hydroxy-3-methylbutan-2-yl)-7-methoxy-4-oxo-1,4-dihydro-1,8-naphthyridine-3-carboxylic acid]",> 100 nM
4,"COc1nc2c(cc1NCCc1ccccc1F)c(=O)c(C(=O)O)cn2[C@H](CO)C(C)C [Example 20S, (S)-6-(2-fluorophenethylamino)-1-(1-hydroxy-3-methylbutan-2-yl)-7-methoxy-4-oxo-1,4-dihydro-1,8-naphthyridine-3-carboxylic acid]",> 100 nM
5,"COc1nc2c(cc1NCCc1ccc(F)cc1)c(=O)c(C(=O)O)cn2[C@H](CO)C(C)C [Example 20T, (S)-6-(4-fluorophenethylamino)-1-(1-hydroxy-3-methylbutan-2-yl)-7-methoxy-4-oxo-1,4-dihydro-1,8-naphthyridine-3-carboxylic acid]",> 100 nM
6,"COc1nc2c(cc1N(C)Cc1ccccc1F)c(=O)c(C(=O)O)cn2[C@H](CO)C(C)C [Example 20U, (S)-6-((2-fluorobenzyl)(methyl)amino)-1-(1-hydroxy-3-methylbutan-2-yl)-7-methoxy-4-oxo-1,4-dihydro-1,8-naphthyridine-3-carboxylic acid]",> 100 nM
7,"COc1nc2c(cc1N(C)Cc1ccc(F)cc1)c(=O)c(C(=O)O)cn2[C@H](CO)C(C)C [Example 20V, (S)-6-((4-fluorobenzyl)(methyl)amino)-1-(1-hydroxy-3-methylbutan-2-yl)-7-methoxy-4-oxo-1,4-dihydro-1,8-naphthyridine-3-carboxylic acid]",> 100 nM
8,"COc1nc2c(cc1NCc1ccccc1C(F)(F)F)c(=O)c(C(=O)O)cn2[C@H](CO)C(C)C [Example 20W, (S)-1-(1-hydroxy-3-methylbutan-2-yl)-7-methoxy-4-oxo-6-(2-(trifluoromethyl)benzylamino)-1,4-dihydro-1,8-naphthyridine-3-carboxylic acid]",> 100 nM
9,"COc1nc2c(cc1NCc1cccc(C(F)(F)F)c1)c(=O)c(C(=O)O)cn2[C@H](CO)C(C)C [Example 20X, (S)-1-(1-hydroxy-3-methylbutan-2-yl)-7-methoxy-4-oxo-6-(3-(trifluoromethyl)benzylamino)-1,4-dihydro-1,8-naphthyridine-3-carboxylic acid]",> 100 nM
10,"COc1nc2c(cc1NCc1ccc(C(F)(F)F)cc1)c(=O)c(C(=O)O)cn2[C@H](CO)C(C)C [Example 20Y, (S)-1-(1-hydroxy-3-methylbutan-2-yl)-7-methoxy-4-oxo-6-(4-(trifluoromethyl)benzylamino)-1,4-dihydro-1,8-naphthyridine-3-carboxylic acid]",> 100 nM
11,"COc1nc2c(cc1NCc1c(F)cccc1F)c(=O)c(C(=O)O)cn2[C@H](CO)C(C)C [Example 20Z, (S)-6-(2,6-difluorobenzylamino)-1-(1-hydroxy-3-methylbutan-2-yl)-7-methoxy-4-oxo-1,4-dihydro-1,8-naphthyridine-3-carboxylic acid]",10 to 100 nM
12,"COc1cc2c(cc1NCc1ccc(F)cc1)c(=O)c(C(=O)O)cn2[C@H](CO)C(C)C [Example 21A, (S)-6-(4-Fluorobenzylamino)-1-(1-hydroxy-3-methylbutan-2-yl)-7-methoxy-4-oxo-1,4-dihydroquinoline-3-carboxylic acid]",< 10 nM
13,"COc1cc2c(cc1NCc1c(F)cc(F)cc1F)c(=O)c(C(=O)O)cn2[C@H](CO)C(C)C [Example 21B, (S)-1-(1-hydroxy-3-methylbutan-2-yl)-7-methoxy-4-oxo-6-(2,4,6-trifluorobenzylamino)-1,4-dihydroquinoline-3-carboxylic acid]",< 10 nM
14,"COc1cc2c(cc1NCc1c(F)cccc1F)c(=O)c(C(=O)O)cn2[C@H](CO)C(C)C [Example 21C, (S)-6-(2,6-difluorobenzylamino)-1-(1-hydroxy-3-methylbutan-2-yl)-7-methoxy-4-oxo-1,4-dihydroquinoline-3-carboxylic acid]",10 to 100 nM
15,"COc1cc2c(cc1NCc1ccc(F)cc1F)c(=O)c(C(=O)O)cn2[C@H](CO)C(C)C [Example 21D, (S)-6-(2,4-difluorobenzylamino)-1-(1-hydroxy-3-methylbutan-2-yl)-7-methxoy-4-oxo-1,4-dihydroquinoline-carboxylic acid]",10 to 100 nM
16,"CC(C)[C@@H](CO)n1cc(C(=O)O)c(=O)c2cc(NCc3ccc(F)cc3)ccc21 [Example 22A, (S)-6-(4-fluorobenzylamino)-1-(1-hydroxy-3-methylbutan-2-yl)-4-oxo-1,4-dihydroquinoline-3-carboxylic acid]",> 100 nM

row,Structure (SMILES),EC50
1,"CC(C)(C)[C@@H](CO)n1cc(C(=O)O)c(=O)c2cc(NCc3ccc(F)cc3)ccc21 [Example 22B, (S)-6-(4-fluorobenzylamino)-1-(1-hydroxy-3,3-dimethylbutan-2-yl)-4-oxo-1,4-dihydroquinoline-3-carboxylic acid]",10 to 100 nM
2,"CC(C)[C@@H](CO)n1cc(C(=O)O)c(=O)c2cc(NCc3c(F)cc(F)cc3F)ccc21 [Example 22C, (S)-1-(1-hydroxy-3-methylbutan-2-yl)-4-oxo-6-(2,4,6-trifluorobenzylamino)-1,4-dihydroquinoline-3-carboxylic acid]",10 to 100 nM
3,"CC(C)[C@@H](CO)n1cc(C(=O)O)c(=O)c2cc(OCc3ccc(F)cc3)ccc21 [Example 23A, (S)-6-(4-fluorobenzyloxy)-1-(1-hydroxy-3-methylbutan-2-yl)-4-oxo-1,4-dihydroquinoline-3-carboxylic acid]",> 100 nM
4,"CC(C)(C)[C@@H](CO)n1cc(C(=O)O)c(=O)c2cc(OCc3ccc(F)cc3F)ccc21 [Example 23B, (S)-6-(2,4-difluorobenzyloxy)-1-(1-hydroxy-3,3-dimethylbutan-2-yl)-4-oxo-1,4-dihydroquinoline-3-carboxylic acid]",> 100 nM
5,"CC(C)(C)[C@@H](CO)n1cc(C(=O)O)c(=O)c2cc(OCc3c(F)cc(F)cc3F)ccc21 [Example 23C, (S)-1-(1-hydroxy-3,3-dimethylbutan-2-yl)-4-oxo-6-(2,4,6-trifluorobenzyloxy)-1,4-dihydroquinoline-3-carboxylic acid]",10 to 100 nM
6,"CC(C)[C@@H](CO)n1cc(C(=O)O)c(=O)c2cc(NCc3ccc(F)cc3)c(N3CCOCC3)nc21 [Example 24A, (S)-6-(4-fluorobenzylamino)-1-(1-hydroxy-3-methylbutan-2-yl)-7-morpholino-4-oxo-1,4-dihydro-1,8-naphthyridine-3-carboxylic acid]",> 100 nM
7,"Cc1cc2c(cc1NCc1ccc(F)cc1)c(=O)c(C(=O)O)cn2[C@H](CO)C(C)(C)C [Example 25C, (S)-6-(4-fluorobenzylamino)-1-(1-hydroxy-3,3-dimethylbutan-2-yl)-7-methyl-4-oxo-1,4-dihydroquinoline-3-carboxylic acid]",10 to 100 nM
8,"Cc1cc2c(cc1NCc1c(F)cc(F)cc1F)c(=O)c(C(=O)O)cn2[C@H](CO)C(C)(C)C [Example 25D, (S)-1-(1-hydroxy-3,3-dimethylbutan-2-yl)-7-methyl-4-oxo-6-(2,4,6-trifluorobenzylamino)-1,4-dihydroquinoline-3-carboxylic acid]",< 10 nM
9,"CC(C)(C)[C@@H](CO)n1cc(C(=O)O)c(=O)c2cc(NCc3ccc(F)cc3)c(F)cc21 [Example 26A, (S)-7-fluoro-6-(4-fluorobenzylamino)-1-(1-hydroxy-3,3-dimethylbutan-2-yl)-4-oxo-1,4-dihydroquinoline-3-carboxylic acid]",10 to 100 nM
10,"CC(C)(C)[C@@H](CO)n1cc(C(=O)O)c(=O)c2cc(NCc3c(F)cc(F)cc3F)c(Cl)cc21 [Example 26D, (S)-7-chloro-1-(1-hydroxy-3,3-dimethylbutan-2-yl)-4-oxo-6-(2,4,6-trifluorobenzylamino)-1,4-dihydroquinoline-3-carboxylic acid]",10 to 100 nM
11,"CC(C)(C)[C@@H](CO)n1cc(C(=O)O)c(=O)c2cc(NCc3ccc(F)cc3)c(Cl)cc21 [Example 26E, (S)-7-chloro-6-(4-fluorobenzylamino)-1-(1-hydroxy-3,3-dimethylbutan-2-yl)-4-oxo-1,4-dihydroquinoline-3-carboxylic acid]",> 100 nM
12,"CCOc1nc2c(cc1NCc1ccc(F)cc1)c(=O)c(C(=O)O)cn2[C@H](CO)C(C)C [Example 27A, (S)-7-Ethoxy-6-(4-fluorobenzylamino)-1-(1-hydroxy-3-methylbutan-2-yl)-4-oxo-1,4-dihydro-1,8-naphthyridine-3-carboxylic acid]",> 100 nM
13,"CCOc1nc2c(cc1NCc1c(F)cc(F)cc1F)c(=O)c(C(=O)O)cn2[C@H](CO)C(C)C [Example 27B, (S)-7-Ethoxy-1-(1-hydroxy-3-methylbutan-2-yl)-4-oxo-6-(2,4,6-trifluorobenzylamino)-1,4-dihydro-1,8-naphthyridine-3-carboxylic acid]",10 to 100 nM
14,"COCCOc1cc2c(cc1NCc1ccc(F)cc1)c(=O)c(C(=O)O)cn2[C@H](CO)C(C)(C)C [Example 27C, (S)-6-(4-fluorobenzylamino)-1-(1-hydroxy-3,3-dimethylbutan-2-yl)-7-(2-methoxyethoxy)-4-oxo-1,4-dihydroquinoline-3-carboxylic acid]",10 to 100 nM
15,"CC(C)(C)[C@@H](CO)n1cc(C(=O)O)c(=O)c2cc(NCc3c(F)cc(F)cc3F)c(N3CCOCC3)nc21 [Example 27E, (S)-1-(1-hydroxy-3,3-dimethylbutan-2-yl)-7-morpholino-4-oxo-6-(2,4,6-trifluorobenzylamino)-1,4-dihydro-1,8-naphthyridine-3-carboxylic acid]",10 to 100 nM
